In US4371541A, “Antiinflammatory and/or analgesic 3,4-dihydro-(or 1,4-dihydro)-4-aryl-2-((substituted)thio)-(1)-benzopyrano(3,4-d)imidazol es and their corresponding sulfoxides and sulfones” (E. I. Du Pont de Nemours and Company, priority 1982, dated 1983):
Like-named read-outs stand apart in the source and are kept apart here.

Key:
[1] = system: phenylquinone-induced writhing (pain); assay: Phenylquinone Writhing Test; assay type: in vivo, female white mice; details: read-out: Phenylquinone Writhing ED50
Protocol: A test compound suspended in 1% methylcellulose was given orally to fasted (17-21 hours) female white mice, 5-20 animals per double blind test. Aqueous (0.01% phenyl-p-benzoquinone) phenylquinone, 0.20 ml per mouse, was injected intraperitoneally 6 minutes before observations were begun.

[2] = system: adjuvant-induced arthritis; assay: Established Adjuvant-Induced Arthritis in Rats; assay type: in vivo, Charles River Lewis male rats; details: rat; for ED50: oral gavage, dosed on day of grouping and 6 following days, ED50% decrease from control paw volume (uninjected left hind paw), read-out: Adjuvant Arthritic ED50; for Adjuvant Arthritic, paw volume reduction at the indicated dose: oral
[3] = mouse, oral, fasted, effective analgesic dose for 50% of the mice

| Structure (SMILES) | ED50 [1, 3] [mg/kg] | ED50 [2] [mg/kg] | also measured |
| --- | --- | --- | --- |
| O=S(=O)(c1nc2c([nH]1)C(c1ccccc1)Oc1ccccc1-2)C(F)(F)C(F)F (stereo not shown) [Example 2, 3,4-Dihydro(or 1,4-dihydro)-2-[(1,1,2,2-tetrafluoroethyl)sulfonyl]-4-phenyl-[1]benzopyrano[3,4-d]imidazole] | 0.19 | 1.3 | – |
| CC(C)Cc1ccc(C(C)C(=O)O)cc1 (stereo not shown) [Ibuprofen, ibuprofen, reference compound] | 10 | – | – |
| CS(=O)(=O)c1nc2c([nH]1)C(c1ccccc1)Oc1ccccc1-2 (stereo not shown) [Example 6, 3,4-Dihydro(or 1,4-dihydro)-2-(methylsulfonyl)-4-phenyl-[1]benzopyrano[3,4-d]imidazole] | 78 | – | Adjuvant Arthritic, paw volume reduction at the indicated dose ([2]; at 27 (mg/kg)): 34% |
| FC(F)(F)CSc1nc2c([nH]1)C(c1ccccc1)Oc1ccccc1-2 (stereo not shown) [Example 9] | – | – | Adjuvant Arthritic, paw volume reduction at the indicated dose ([2]; at 20 (mg/kg)): 30% |
| COc1ccc2c(c1)c(CC(=O)O)c(C)n2C(=O)c1ccc(Cl)cc1 [Indomethacin, indomethacin, reference compound] | – | – | ED50 ([1]; Mus musculus, po): 0.35 mg/kg |
| CCCCC1C(=O)N(c2ccccc2)N(c2ccccc2)C1=O [Phenylbutazone, phenylbutazone, reference compound] | 80 | – | – |
| Fc1ccc(C2Oc3ccccc3-c3nc(SC(F)(F)C(F)F)[nH]c32)cc1 (stereo not shown) [Example 3, 3,4-Dihydro(or 1,4-dihydro)-2-[(1,1,2,2-tetrafluoroethyl)thio]-4-(4-fluorophenyl)-[1]benzopyrano[3,4-d]-imidazole] | 0.79 | 4 | – |
| COc1ccc(C2Oc3ccccc3-c3nc(SC(F)(F)C(F)F)[nH]c32)cc1 (stereo not shown) [Example 7] | < 4 | – | – |
| FC(F)C(F)(F)Sc1nc2c([nH]1)C(c1ccccc1)Oc1ccccc1-2 (stereo not shown) [Example 1, 3,4-Dihydro(or 1,4-dihydro)-2-[(1,1,2,2-tetrafluoroethyl)thio]-4-phenyl-[1]benzopyrano[3,4-d]imidazole] | 1.3 | 3.4 | – |
| CC(=O)Oc1ccccc1C(=O)O [Aspirin, aspirin, reference compound] | – | – | ED50 ([1]; Mus musculus, po): 135 mg/kg |
| CCSc1nc2c([nH]1)C(c1ccccc1)Oc1ccccc1-2 (stereo not shown) [Example 8] | – | – | Adjuvant Arthritic, paw volume reduction at the indicated dose ([2]; at 20 (mg/kg)): 18% |
| FC(F)(F)Sc1nc2c([nH]1)C(c1ccccc1)Oc1ccccc1-2 (stereo not shown) [Example 4, 3,4-Dihydro(or 1,4-dihydro)-2-[(trifluoromethyl)thio]4phenyl-[1]benzopyrano[3,4-d]imidazole] | 0.58 | – | Adjuvant Arthritic, paw volume reduction at the indicated dose ([2]; at 9 (mg/kg)): 31% |
| O=S(=O)(c1nc2c([nH]1)C(c1ccccc1)Oc1ccccc1-2)C(F)(F)F (stereo not shown) [Example 5, 3,4-Dihydro(or 1,4-dihydro)-2-[(trifluoromethyl)sulfonyl]-4-phenyl-[1]benzopyrano[3,4-d]imidazole] | 0.16 | 0.8 | – |
